One assay concerns the target STK4 (Homo sapiens (Human), UniProt Q13043). Briefly: PhosphoSens CSox-based Sensor Assay, STK4. In kind it is biochemical. The conditions noted are these: Km ATP, mean n = 2. The protocol:
(§1) Materials were obtained and prepared according to the assay manufacturer's protocol (Assay Quant Technologies: Marlborough, MA, USA). The 50 μL reaction was initiated by addition of a master mix containing the compounds or vehicle, kinase, and CSox-peptide substrate to a well containing the remaining components. […] Final concentrations were: […] HEPES pH 7.5, 50 μM ATP, 1.0 mM DTT, 0.01% Brij-35, 0.5 mM EGTA, 10 mM MgCl2, 10 μM peptide substrate (AQT0135), and 5.0 nM STK3 (SignalChem #S24-10G) or STK4 (SignalChem #S25-10G) kinases. […] Background-corrected RFU were plotted against time using Prism 8 software. Velocity determinations were calculated for each reaction and plotted versus compound concentration to generate inhibitor curves.
(§2) The PhosphoSens® CSox-based Sensor real-time kinetic assay uses a peptide substrate containing an unnatural amino acid and physiological Mg^2+ levels to quantify substrate phosphorylation using fluorescence.

The next assay deals with kinase domain of STK4 (Homo sapiens (Human), UniProt Q13043). The experiment in a line: Isothermal titration calorimetry (ITC), STK4. It counts as binding. The conditions noted are these: 25° C. The protocol:
(§3) All ITC experiments were performed using NanoITC (TA Instruments: New Castle, DE, USA) at 25° C. in a buffer containing 20 mM Tris pH 7.5, 150 mM NaCl, and 0.5 mM TCEP. […] For this protocol the chamber was pre-equilibrated with the test compound, and the kinase domain of STK3 or STK4 was titrated in while continuously measuring the rate of exothermic heat evolution. The heat of binding was integrated, corrected, and fitted to an independent single-binding site model based on the manufacturer's protocol, from which thermodynamic parameters (ΔH and TΔS), equilibrium association and dissociation constants (Ka and KD), and stoichiometry (n) were calculated.
(§4) Isothermal titration calorimetry (ITC) was used to determine the thermodynamic properties of the compounds.

The next assay has as its target STK3 (Homo sapiens (Human), UniProt Q13188). The experiment in a line: PhosphoSens CSox-based Sensor Assay, STK3. It counts as biochemical. The following applies: Km ATP, mean n = 2. The protocol: as §1, §2
The target of a further assay is kinase domain of STK3 (Homo sapiens (Human), UniProt Q13188). Briefly: Isothermal titration calorimetry (ITC), STK3. The conditions noted are these: 25° C. In kind it is binding. Here is the method:
as §3, §4

Here are results for three compounds from patent publication US20250051337A1 (priority 2021, published 2025).

Sequence of STK3 (Q13188 whole entry, the tested form may be a part): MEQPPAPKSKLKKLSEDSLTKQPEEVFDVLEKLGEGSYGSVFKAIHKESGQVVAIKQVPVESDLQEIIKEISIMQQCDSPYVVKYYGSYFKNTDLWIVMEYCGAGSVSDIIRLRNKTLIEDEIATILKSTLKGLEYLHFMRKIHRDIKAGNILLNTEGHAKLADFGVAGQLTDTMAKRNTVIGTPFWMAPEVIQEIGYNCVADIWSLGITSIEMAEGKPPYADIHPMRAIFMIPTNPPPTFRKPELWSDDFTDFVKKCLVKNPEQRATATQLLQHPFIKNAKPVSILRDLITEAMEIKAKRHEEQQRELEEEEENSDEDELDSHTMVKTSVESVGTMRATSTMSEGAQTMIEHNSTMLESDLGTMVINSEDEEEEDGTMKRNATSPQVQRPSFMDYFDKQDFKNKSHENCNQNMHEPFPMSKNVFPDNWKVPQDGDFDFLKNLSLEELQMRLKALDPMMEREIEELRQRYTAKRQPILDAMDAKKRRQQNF
Sequence of kinase domain of STK4 (Q13043 30-281): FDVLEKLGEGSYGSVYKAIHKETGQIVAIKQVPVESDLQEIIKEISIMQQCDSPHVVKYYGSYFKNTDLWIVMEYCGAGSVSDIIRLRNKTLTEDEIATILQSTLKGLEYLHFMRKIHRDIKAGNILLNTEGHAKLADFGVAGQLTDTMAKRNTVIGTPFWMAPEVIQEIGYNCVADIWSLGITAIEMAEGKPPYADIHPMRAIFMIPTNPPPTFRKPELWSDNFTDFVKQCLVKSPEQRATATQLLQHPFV
Sequence of STK4 (Q13043 whole entry): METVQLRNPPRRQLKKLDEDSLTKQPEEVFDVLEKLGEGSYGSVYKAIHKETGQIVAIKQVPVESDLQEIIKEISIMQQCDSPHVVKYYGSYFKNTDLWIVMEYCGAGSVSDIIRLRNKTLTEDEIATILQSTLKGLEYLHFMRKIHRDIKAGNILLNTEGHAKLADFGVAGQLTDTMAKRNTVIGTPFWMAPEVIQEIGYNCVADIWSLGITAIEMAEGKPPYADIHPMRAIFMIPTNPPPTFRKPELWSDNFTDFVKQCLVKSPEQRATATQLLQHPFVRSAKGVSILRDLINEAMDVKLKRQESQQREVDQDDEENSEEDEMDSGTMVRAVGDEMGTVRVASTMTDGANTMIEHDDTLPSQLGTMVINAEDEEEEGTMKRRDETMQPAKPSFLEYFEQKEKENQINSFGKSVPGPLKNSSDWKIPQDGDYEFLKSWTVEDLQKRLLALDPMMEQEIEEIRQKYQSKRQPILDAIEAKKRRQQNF
Sequence of kinase domain of STK3 (Q13188 27-278): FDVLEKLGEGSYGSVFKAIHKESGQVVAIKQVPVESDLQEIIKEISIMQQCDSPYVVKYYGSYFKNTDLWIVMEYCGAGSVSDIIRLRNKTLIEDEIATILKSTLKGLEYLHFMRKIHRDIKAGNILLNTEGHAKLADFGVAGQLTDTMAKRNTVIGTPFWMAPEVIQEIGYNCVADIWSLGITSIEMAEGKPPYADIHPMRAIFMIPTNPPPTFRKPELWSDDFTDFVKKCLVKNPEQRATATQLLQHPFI

In the case of `Clc1cccc(-c2c[nH]c3ncnc(N4CCOCC4)c23)c1` [Compound 6, 4-(5-(3-Chlorophenyl)-7H-pyrrolo[2,3-d]pyrimidin-4-yl)morpholine], on STK4, the inhibition constant (Ki) (as a rule, the equilibrium dissociation constant of an inhibitor or competing ligand from its target) is 52 nM. The “ITC-KD, STK4” value on kinase domain of STK4 is “low nanomolar affinities”.
For `Clc1cccc(-c2c[nH]c3nccc(N4CCOCC4)c23)c1` [Compound 23, 4-(3-(3-chlorophenyl)-1H-pyrrolo[2,3-b]pyridin-4-yl)morpholine], the Ki on STK4 was 33 nM; on STK3, 209 nM. Besides, on kinase domain of STK3, the “ITC-KD, STK3” value is listed as “low nanomolar affinities”. The “ITC-KD, STK4” value at kinase domain of STK4 is on record as “low nanomolar affinities”.
As to `NC(=O)c1cccc(-c2c[nH]c3ncnc(N4CCOCC4)c23)c1` [Compound 11, 3-(4-Morpholino-7H-pyrrolo[2,3-d]pyrimidin-5-yl)benzamide], the inhibitory constant (Ki) at STK3 worked out at 145 nM.
